Read-outs that look alike come from different tables or passages of the source.
How the values were obtained:
[1] = target: T1, USP2 (Homo sapiens, UniProt O75604); assay: biochemical; settings: USP2 10 nM, Ub-rhodamine110
T1 construct: USP2c, USP4, USP7, USP8c, USP15, USP30WT, and UCH-L1; purchased LifeSensors, Inc. (Malvern, PA)

[2] = target: T2, USP7 (Homo sapiens, UniProt Q93009); assay: biochemical; settings: USP7 5 nM, Ub-CHOP2
T2 construct: purchased LifeSensors, Inc. (Malvern, PA)

[3] = system: SARS-CoV-2 isolate USA-WA1/2020; settings: read-out: cytopathic effect, % cell viability, duplicate wells
[4] = system: Vero E6 cells; settings: African green monkey, 48 h
[5] = target: T3, USP15 (Homo sapiens, UniProt Q9Y4E8); assay: DUB selectivity assay, USP15 (Ub-rhodamine110); assay type: biochemical; settings: USP15 1 nM, Ub-rhodamine110; read-out: IC50
T3 construct: purchased LifeSensors, Inc. (Malvern, PA)
T3 sequence (Q9Y4E8 1-981): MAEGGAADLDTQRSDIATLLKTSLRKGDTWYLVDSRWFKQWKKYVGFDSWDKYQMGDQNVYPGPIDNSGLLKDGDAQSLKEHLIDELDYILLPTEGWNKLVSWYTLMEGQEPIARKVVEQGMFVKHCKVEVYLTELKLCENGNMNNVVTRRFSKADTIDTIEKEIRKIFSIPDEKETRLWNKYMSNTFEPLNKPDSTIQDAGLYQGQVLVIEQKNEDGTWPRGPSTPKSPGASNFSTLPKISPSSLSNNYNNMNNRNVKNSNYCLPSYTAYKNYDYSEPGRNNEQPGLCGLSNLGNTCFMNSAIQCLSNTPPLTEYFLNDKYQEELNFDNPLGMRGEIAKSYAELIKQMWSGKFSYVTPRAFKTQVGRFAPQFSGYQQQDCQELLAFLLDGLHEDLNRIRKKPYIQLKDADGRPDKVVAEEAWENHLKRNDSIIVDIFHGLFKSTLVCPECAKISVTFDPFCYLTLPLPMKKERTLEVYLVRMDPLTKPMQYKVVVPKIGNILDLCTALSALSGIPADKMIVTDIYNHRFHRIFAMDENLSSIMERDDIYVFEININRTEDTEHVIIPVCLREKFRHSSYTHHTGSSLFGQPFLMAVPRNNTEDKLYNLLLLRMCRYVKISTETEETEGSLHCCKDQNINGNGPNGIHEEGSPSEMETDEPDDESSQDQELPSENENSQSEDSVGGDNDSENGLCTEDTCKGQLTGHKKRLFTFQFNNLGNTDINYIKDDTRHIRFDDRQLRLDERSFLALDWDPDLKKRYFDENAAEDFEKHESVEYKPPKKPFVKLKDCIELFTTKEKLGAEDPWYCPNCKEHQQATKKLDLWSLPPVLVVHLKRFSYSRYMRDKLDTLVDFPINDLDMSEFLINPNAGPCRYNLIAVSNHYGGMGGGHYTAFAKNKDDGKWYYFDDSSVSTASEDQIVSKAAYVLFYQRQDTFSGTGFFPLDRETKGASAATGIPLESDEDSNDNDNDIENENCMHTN

[6] = target: T4, SARS-CoV-2 PLpro (Severe acute respiratory syndrome coronavirus 2, UniProt P0DTD1); assay: biochemical; settings: PLpro 10 nM, ISG15-CHOP2
[7] = system: SARS-CoV PLpro; settings: cited from earlier work
[8] = target: PLpro from SARS-CoV-2 (Severe acute respiratory syndrome coronavirus 2, UniProt P0DTD1); assay: biochemical; assay type: biochemical
[9] = system: viral replication in Vero E6 cells; settings: viral replication in Vero E6 cells; cited from earlier work
[10] = target: T5, USP4 (Homo sapiens, UniProt Q13107); assay: DUB selectivity assay, USP4 (Ub-rhodamine110); assay type: biochemical; settings: USP4 10 nM, Ub-rhodamine110; read-out: IC50
T5 construct: purchased LifeSensors, Inc. (Malvern, PA)
T5 sequence (Q13107 1-963): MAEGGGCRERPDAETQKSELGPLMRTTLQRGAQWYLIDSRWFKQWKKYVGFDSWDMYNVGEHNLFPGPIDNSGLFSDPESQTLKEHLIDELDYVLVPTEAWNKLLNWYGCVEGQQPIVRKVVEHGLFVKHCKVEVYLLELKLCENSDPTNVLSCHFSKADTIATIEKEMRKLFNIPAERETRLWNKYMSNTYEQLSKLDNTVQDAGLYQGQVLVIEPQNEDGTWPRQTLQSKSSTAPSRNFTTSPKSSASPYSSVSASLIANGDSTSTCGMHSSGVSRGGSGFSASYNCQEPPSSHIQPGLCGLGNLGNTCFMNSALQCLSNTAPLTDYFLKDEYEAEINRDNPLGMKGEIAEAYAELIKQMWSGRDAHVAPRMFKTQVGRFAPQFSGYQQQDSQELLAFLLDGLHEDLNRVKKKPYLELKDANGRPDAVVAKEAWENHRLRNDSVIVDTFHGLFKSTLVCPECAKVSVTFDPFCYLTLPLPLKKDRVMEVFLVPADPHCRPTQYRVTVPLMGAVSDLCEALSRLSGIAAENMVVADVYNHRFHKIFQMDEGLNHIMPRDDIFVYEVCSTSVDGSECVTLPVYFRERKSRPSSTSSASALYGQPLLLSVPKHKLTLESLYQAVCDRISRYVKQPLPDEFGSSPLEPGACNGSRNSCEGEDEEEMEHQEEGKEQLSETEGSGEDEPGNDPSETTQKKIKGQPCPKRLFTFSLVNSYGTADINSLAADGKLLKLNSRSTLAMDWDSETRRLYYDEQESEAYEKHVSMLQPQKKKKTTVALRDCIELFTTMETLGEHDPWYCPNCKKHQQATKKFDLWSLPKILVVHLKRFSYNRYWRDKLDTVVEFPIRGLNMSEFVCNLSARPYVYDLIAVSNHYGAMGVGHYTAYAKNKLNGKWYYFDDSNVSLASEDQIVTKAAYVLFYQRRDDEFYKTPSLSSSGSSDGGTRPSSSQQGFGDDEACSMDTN

[11] = target: T6, UCHL1 (Homo sapiens, UniProt P09936); assay: biochemical; settings: UCHL1 10 nM, Ub-rhodamine110
T6 construct: purchased LifeSensors, Inc. (Malvern, PA)
T6 sequence (P09936 whole entry): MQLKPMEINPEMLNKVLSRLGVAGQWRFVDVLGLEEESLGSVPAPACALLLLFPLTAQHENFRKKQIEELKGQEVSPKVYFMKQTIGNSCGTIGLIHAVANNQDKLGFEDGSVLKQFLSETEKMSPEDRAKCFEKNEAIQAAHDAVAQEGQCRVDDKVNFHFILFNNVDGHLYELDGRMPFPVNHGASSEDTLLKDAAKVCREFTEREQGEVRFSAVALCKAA

[12] = target: T7, USP30 (Homo sapiens, UniProt Q70CQ3); assay: biochemical; settings: USP30 10 nM, Ub-rhodamine110
T7 construct: purchased LifeSensors, Inc. (Malvern, PA)
T7 sequence (Q70CQ3 whole entry): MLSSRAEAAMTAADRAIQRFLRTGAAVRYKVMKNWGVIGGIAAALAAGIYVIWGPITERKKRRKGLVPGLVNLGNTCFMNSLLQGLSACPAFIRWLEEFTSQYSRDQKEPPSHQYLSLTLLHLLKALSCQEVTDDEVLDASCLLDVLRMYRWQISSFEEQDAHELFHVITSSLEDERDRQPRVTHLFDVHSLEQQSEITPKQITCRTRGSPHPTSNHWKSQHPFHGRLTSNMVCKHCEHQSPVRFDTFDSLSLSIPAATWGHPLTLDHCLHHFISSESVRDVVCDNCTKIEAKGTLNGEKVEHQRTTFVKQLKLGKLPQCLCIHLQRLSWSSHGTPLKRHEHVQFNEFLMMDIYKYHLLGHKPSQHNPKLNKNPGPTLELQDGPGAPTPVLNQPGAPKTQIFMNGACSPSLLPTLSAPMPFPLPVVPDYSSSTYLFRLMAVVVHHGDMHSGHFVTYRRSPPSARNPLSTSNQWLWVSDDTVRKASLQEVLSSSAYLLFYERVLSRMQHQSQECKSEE

[13] = in vitro; settings: African green monkey, cytotoxicity, %cell viability
[14] = system: SARS-CoV-2 isolate USA-WA1/2020; assay: microbe, parasite or virus in culture; settings: duplicate wells
[15] = target: T4, SARS-CoV-2 PLpro; assay: biochemical; settings: PLpro 50 nM, Ub-rhodamine110
[16] = target: T8, USP8 (Homo sapiens, UniProt P40818); assay: biochemical; settings: USP8 10 nM, Ub-rhodamine110
T8 construct: USP2c, USP4, USP7, USP8c, USP15, USP30WT, and UCH-L1; purchased LifeSensors, Inc. (Malvern, PA)
T8 sequence (P40818 777-1109): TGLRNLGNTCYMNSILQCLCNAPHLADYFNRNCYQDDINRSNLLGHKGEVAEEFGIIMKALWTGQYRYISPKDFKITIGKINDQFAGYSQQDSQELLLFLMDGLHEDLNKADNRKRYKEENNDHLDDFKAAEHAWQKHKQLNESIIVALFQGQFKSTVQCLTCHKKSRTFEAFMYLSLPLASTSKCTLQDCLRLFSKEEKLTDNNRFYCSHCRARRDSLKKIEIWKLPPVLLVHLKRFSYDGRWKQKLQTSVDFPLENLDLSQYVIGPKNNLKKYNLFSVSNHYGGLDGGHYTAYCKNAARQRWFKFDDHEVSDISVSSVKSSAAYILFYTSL

T1 sequence (O75604 267-599): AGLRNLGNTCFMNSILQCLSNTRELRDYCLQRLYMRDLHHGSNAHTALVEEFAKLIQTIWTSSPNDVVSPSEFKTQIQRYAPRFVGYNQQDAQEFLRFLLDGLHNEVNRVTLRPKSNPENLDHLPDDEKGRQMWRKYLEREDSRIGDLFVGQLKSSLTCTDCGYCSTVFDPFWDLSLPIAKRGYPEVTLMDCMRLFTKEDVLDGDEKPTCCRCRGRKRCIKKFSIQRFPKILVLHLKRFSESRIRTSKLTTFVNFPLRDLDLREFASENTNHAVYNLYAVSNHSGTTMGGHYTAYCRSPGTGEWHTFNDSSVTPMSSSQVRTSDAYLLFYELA
T2 sequence (Q93009 whole entry): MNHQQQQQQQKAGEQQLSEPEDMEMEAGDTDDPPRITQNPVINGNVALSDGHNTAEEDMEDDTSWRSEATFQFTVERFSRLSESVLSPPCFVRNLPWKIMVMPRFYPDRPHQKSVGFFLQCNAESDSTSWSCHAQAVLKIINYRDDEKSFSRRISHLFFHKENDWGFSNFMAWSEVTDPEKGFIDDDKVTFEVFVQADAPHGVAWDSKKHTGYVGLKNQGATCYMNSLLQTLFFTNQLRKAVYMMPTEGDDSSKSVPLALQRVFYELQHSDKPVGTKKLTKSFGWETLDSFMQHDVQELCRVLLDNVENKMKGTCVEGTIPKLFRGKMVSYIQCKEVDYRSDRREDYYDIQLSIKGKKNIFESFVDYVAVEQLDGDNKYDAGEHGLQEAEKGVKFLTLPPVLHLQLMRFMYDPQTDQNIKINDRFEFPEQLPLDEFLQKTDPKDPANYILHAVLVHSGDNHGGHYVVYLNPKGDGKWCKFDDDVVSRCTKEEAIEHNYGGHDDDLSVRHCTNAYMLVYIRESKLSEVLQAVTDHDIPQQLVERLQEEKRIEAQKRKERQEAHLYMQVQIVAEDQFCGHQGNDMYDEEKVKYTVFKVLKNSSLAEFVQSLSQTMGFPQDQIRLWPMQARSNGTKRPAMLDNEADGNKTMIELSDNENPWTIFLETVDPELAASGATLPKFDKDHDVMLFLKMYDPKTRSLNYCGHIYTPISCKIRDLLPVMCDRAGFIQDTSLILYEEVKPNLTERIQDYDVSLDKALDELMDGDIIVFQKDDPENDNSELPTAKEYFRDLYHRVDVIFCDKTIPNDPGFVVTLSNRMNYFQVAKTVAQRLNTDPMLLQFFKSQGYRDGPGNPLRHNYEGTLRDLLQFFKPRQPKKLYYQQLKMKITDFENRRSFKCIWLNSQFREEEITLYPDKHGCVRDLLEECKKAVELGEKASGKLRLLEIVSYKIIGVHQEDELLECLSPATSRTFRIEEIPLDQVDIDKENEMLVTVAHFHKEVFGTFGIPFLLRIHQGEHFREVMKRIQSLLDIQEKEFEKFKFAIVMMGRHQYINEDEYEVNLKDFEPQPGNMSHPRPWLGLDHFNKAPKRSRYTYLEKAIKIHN

CC(=O)Nc1ccc(C)c(C(=O)N[C@H](C)c2cccc3ccccc23)c1 [Compound 15, (R)-5-acetamido-2-methyl-N-(1-(naphthalen-1-yl)ethyl)benzamide]
IC50 [1]: > 30 µM | IC50 [2]: > 30 µM | inhibition ([3]; [inhibitor] 8.33 uM, 8.33 µM): 3.31% | inhibition ([3]; [inhibitor] 16.67 uM, 16.67 µM): 6.9% | cytotoxicity, %cell viability ([4]; 2.08 µM): 75.89% | cytotoxicity, %cell viability ([4]; 8.33 µM): 83.23% | cytotoxicity, %cell viability ([4]; 16.67 µM): 80.07% | cytotoxicity, %cell viability ([4]; 33.33 µM): 59.25% | IC50 [5]: > 30 µM | Hill slope [6]: 0.969 | IC50 [6]: > 30 µM | IC50 [7]: 2.6 µM | remaining activity at 0.02 µM ([8]; 0.5 h, inhibitor 0.02 uM): 115% | remaining activity at 0.06 µM ([8]; 0.5 h, inhibitor 0.06 uM): 104% | remaining activity at 0.2 µM ([8]; 0.5 h, inhibitor 0.20 uM): 110% | remaining activity at 2.01 µM ([8]; 0.5 h, inhibitor 2.01 uM): 61.8% | remaining activity at 6.34 µM ([8]; 0.5 h, inhibitor 6.34 uM): 56.9% | remaining activity at 20 µM ([8]; 0.5 h, inhibitor 20.00 uM): 26.7% | IC50 ([8]; after 30-min incubation, purified PLpro, Z-RLRGG-AMC substrate): 6.2 µM | EC50 [9]: 13.1 µM | IC50 [10]: > 30 µM | IC50 [11]: > 30 µM | IC50 [12]: > 30 µM | viability at 48 h, 2.08 µM [13]: 85.5% | viability at 48 h, 8.33 µM [13]: 85.8% | viability at 48 h, 16.67 µM [13]: 81.3% | viability at 48 h, 33.33 µM [13]: 64.9% | inhibition at 8.33 µM ([14]; Severe acute respiratory syndrome coronavirus 2, Vero C1008, read-out: cytopathic effect, % cell viability, [inhibitor] 8.33 uM): 5.51% | inhibition at 16.67 µM ([14]; Severe acute respiratory syndrome coronavirus 2, Vero C1008, read-out: cytopathic effect, % cell viability, [inhibitor] 16.67 uM): 8.63% | Hill slope [15]: 0.376 | IC50 [15]: > 30 µM | IC50 [16]: > 30 µM
